# Where a SMILES comes first, the peptide text is derived from it. [ ]: non-standard residue; d: D form.
# Test system: paper disc model, Crl:CD (SD) rats
# Assay: Ability to form granulation tissue in paper disc model
# Type: in vivo, rat
# Details: 1, 10 or 100 μg/disc, subcutaneous, eight days
# Method: Then, the ability to form granulation tissue of these polypeptides in vivo was studied. Each of the peptides which were test substances and whose concentration was respectively 25, 250 and 2500 μg/mL, the bFGF formulation whose concentration was respectively 2.5, 25 and 250 μg/mL (positive controls) or saline (negative controls) was added to a paper disc (FILTER PAPER φ8 mm, […]) in an amount of 40 μl, such that, in the final state, the dosage of each peptide was 1, 10 or 100 μg/disc. The prepared paper discs were embedded subcutaneously into the back of Crl:CD (SD) rats (male, 9-week old, obtained from Charles River Laboratories Japan, Inc.). Eight days later, the paper discs were taken out, and the granulation tissues around the paper discs were collected to determine their wet weight.
structure (smiles),measurement,value
CC[C@H](C)[C@H](NC(=O)[C@H](CC(C)C)NC(=O)[C@H](CCCCN)NC(=O)[C@@H](N)CC(C)C)C(=O)N[C@@H](Cc1ccccc1)C(=O)N[C@@H](CC(C)C)C(=O)N[C@@H](Cc1c[nH]cn1)C(=O)N[C@@H](CCCNC(=N)N)C(=O)N[C@@H](CC(C)C)C(=O)N[C@@H](CCCCN)C(=O)N[C@@H](CCCNC(=N)N)C(=O)N[C@@H](CCSC)C(=O)N[C@@H](CCCNC(=N)N)C(=O)N[C@@H](CCCCN)C(=O)N[C@@H](CCCNC(=N)N)C(=O)N[C@@H](CC(C)C)C(=O)N[C@H](CCCCN)C(=O)N[C@@H](CCCNC(=N)N)C(=O)N[C@@H](CCCCN)C(N)=O [SR-08] (H-LKLIFLHRLKRMRKRL[dK]RK-NH2; N-terminus assumed),"Granulation tissue formation (wet weight around paper disc, FIGS. 5 and 6)",promoted granulation tissue formation in vivo
